Data: patent US20250122218A1, “MODULATORS OF CYSTIC FIBROSIS TRANSMEMBRANE CONDUCTANCE REGULATOR” (Vertex Pharmaceuticals Incorporated, priority 2022, published 2025)

molecular target: T1, CFTR in F508del/MF-HBE cells (Homo sapiens, UniProt P13569, DEL508-508); experiment: Ussing chamber assay of CFTR-mediated short-circuit currents (identification of potentiator compounds); format: cell-based; settings: potentiator incubated 18-24 hours at 37° C. in combination with 10 μM corrector, in the presence of 20% human serum, CFTR-mediated ISC
T1 construct: human bronchial epithelial (HBE) cells derived from CF subjects heterozygous for F508del and a minimal function CFTR mutation; endogenous in cells; host or cells: primary human bronchial epithelial cells from CF subjects (F508del/MF-HBE)
T1 sequence (P13569 with tags, fused parts or gaps DEL508-508): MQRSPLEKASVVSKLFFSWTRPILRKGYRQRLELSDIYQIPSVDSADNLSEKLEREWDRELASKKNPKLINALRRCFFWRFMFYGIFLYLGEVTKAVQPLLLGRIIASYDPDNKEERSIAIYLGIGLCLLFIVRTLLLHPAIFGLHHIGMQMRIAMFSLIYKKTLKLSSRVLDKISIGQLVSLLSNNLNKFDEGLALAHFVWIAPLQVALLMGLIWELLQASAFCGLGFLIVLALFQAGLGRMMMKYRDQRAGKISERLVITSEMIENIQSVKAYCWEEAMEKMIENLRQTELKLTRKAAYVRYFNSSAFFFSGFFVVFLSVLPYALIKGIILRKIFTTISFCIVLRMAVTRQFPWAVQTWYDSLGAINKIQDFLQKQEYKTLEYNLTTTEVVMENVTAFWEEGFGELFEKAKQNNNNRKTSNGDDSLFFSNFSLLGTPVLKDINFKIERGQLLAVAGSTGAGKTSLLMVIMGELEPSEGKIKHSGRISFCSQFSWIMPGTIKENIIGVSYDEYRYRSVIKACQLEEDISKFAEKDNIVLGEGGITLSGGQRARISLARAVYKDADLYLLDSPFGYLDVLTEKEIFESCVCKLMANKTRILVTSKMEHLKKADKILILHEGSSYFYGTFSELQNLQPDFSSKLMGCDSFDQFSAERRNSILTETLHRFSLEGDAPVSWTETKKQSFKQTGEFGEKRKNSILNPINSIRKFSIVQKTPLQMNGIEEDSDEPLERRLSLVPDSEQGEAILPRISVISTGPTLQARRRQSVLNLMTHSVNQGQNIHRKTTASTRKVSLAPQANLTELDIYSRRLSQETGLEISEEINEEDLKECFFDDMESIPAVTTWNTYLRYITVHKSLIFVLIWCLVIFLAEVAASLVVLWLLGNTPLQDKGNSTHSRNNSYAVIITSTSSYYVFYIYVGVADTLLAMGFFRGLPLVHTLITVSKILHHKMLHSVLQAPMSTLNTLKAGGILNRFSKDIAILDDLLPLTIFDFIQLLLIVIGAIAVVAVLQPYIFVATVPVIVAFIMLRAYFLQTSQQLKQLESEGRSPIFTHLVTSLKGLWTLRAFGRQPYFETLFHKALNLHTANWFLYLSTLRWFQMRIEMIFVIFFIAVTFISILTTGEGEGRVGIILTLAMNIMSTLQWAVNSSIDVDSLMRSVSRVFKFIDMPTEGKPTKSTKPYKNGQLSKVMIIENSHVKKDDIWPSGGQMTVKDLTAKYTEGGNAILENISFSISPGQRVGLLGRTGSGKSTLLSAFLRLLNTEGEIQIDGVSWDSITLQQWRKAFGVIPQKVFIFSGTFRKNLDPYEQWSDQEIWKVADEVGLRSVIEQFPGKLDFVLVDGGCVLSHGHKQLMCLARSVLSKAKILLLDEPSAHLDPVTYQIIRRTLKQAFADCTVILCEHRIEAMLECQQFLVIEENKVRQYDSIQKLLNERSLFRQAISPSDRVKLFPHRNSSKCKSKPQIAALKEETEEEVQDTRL
How it was run: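 F508del/MF-HBE cultures were preincubated 18-24 h at 37° C with potentiator plus 10 μM of a fixed corrector compound in 20% human serum; compounds were kept present during measurement. ISC was recorded under voltage clamp (0 mV, 37° C, amiloride apical) and taken as the 20 μM forskolin peak minus the current after inhibitor cocktail.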

EC50, < 500 nM:
Nc1cc(C(F)(F)F)c2nc1-c1nnc(o1)[C@@](O)(C(F)(F)F)CCCCCN(Cc1ccc(OC(F)(F)F)cc1)C2=O [Compound 106, (6R)-17-Amino-6-hydroxy-12-[[4-(trifluoromethoxy)phenyl]methyl]-6,15-bis (trifluorom 19-oxa-ethyl)-3,4,12,18-tetrazatricyclo [12.3.1.12,5] nonadeca-1(18),2,4,14,1 6-pentaen-13-one]
C[C@@H](c1ccc(OC(F)(F)F)cc1)N1CCCCC[C@](O)(C(F)(F)F)C2=NN=C(O2)c2nc(c(C(F)(F)F)cc2N)C1=O [Compound 154, (6R)-17-amino-6-hydroxy-12-[(1S)-1-[4-(trifluoromethoxy)phenyl]ethyl]-6,15-bis (trifluoromethyl)-19-oxa-3,4,12,18-tetrazatricyclo [12.3.1.12,5] nonadeca-1(18),2,4,14,1 6-pentaen-13-one]
Nc1cc(C(F)(F)F)c2nc1-c1nnc(o1)[C@@](O)(C(F)(F)F)CCCCCC1(CCC1)C2=O [Compound 48, (6R)-17-amino-6-hydroxy-6,15-bis(trifluoromethyl)spiro[19-oxa-3,4,18-triazatricyclo[12.3.1.12,5]nonadeca-1(18),2,4,14,16-pentaene-12,1′-cyclobutane]-13-one]
Nc1cc(C(F)(F)F)c2nc1-c1nnc(o1)[C@@](O)(C(F)(F)F)CCCCCCC2=O [Compound 6, (6R)-17-amino-6-hydroxy-6,15-bis(trifluoromethyl)-19-oxa-3,4,18-triazatricyclo[12.3.1.12,5]nonadeca-1(18),2,4,14,16-pentaen-13-one]
Nc1cc(C(F)(F)F)c2nc1-c1nnc(o1)C(O)(C(F)(F)F)CCCCCN(Cc1ccc(Br)cc1)C2=O (single isomer, unassigned) [Compound 236, 17-amino-12-[(4-bromophenyl)methyl]-6-hydroxy-6,15-bis(trifluoromethyl)-19-oxa-3,4,12,18-tetrazatricyclo [12.3.1.12,5] nonadeca-1(18),2,4,14,16-pentaen-13-one]
Nc1cc(C(F)(F)F)c2nc1-c1nnc(o1)[C@@](O)(C(F)(F)F)CCCCCN([C@H]1C[C@@H](c3ccccc3)C1)C2=O [Compound 152, (6R)-17-amino-6-hydroxy-12-(3-phenylcyclobutyl)-6,15-bis (trifluoromethyl)-19-oxa-3,4,12,18-tetrazatricyclo [12.3.1.12,5] nonadeca-1(18),2,4,14,1 6-pentaen-13-one]
Nc1cc(C(F)(F)F)c2nc1-c1nnc(o1)C(O)(C(F)(F)F)c1cc(ccc1F)CCCN(C1CC(F)(F)C1)C2=O (racemic) [Compound 201, 20-amino-15-(3,3-difluorocyclobutyl)-8-fluoro-6-hydroxy-6,18-bis(trifluoromethyl)-23-oxa-3,4,15,21-tetraazatetracyclo [15.3.1.12,5.17,11] tricosa 1(21),2,4,7(22),8,10, 17,19-octaen-16-one]
CC(C)(C)c1ccc(CN2CCCCC[C@](O)(C(F)(F)F)C3=NN=C(O3)c3nc(c(C(F)(F)F)cc3N)C2=O)nc1 [Compound 120, (6R)-17-Amino-12-[(5-tert-butyl-2-pyridyl)methyl]-6-hydroxy-6,15-bis (trifluoromethyl)-19-oxa-3,4,12,18-tetrazatricyclo [12.3.1.12,5] nonadeca-1(18),2,4,14,1 6-pentaen-13-one]
Cc1cc(CN2CCCCC[C@](O)(C(F)(F)F)C3=NN=C(O3)c3nc(c(C(F)(F)F)cc3N)C2=O)cc(OC(F)(F)F)c1 [Compound 179, (6R)-17-amino-6-hydroxy-12-[[3-methyl-5-(trifluoromethoxy)phenyl]methyl]-6,15-bis (trifluoromethyl)-19-oxa-3,4,12,18-tetrazatricyclo [12.3.1.12,5] nonadeca-1(18),2,4,14,1 6-pentaen-13-one]
CC(C)(C)[C@H]1CC[C@H](N2CCCCC[C@](O)(C(F)(F)F)C3=NN=C(O3)c3nc(c(C(F)(F)F)cc3N)C2=O)CC1 [Compound 97, (6R)-17-Amino-12-(trans-4-tert-butylcyclohexyl)-6-hydroxy-6,15-bis (trifluoromethyl)-19-oxa-3,4,12,18-tetrazatricyclo [12.3.1.12,5] nonadeca-1(18),2,4,14,1 6-pentaen-13-one]
CCCc1cccc(CN2CCCCC[C@](O)(C(F)(F)F)C3=NN=C(O3)c3nc(c(C(F)(F)F)cc3N)C2=O)c1 [Compound 148, (6R)-17-amino-6-hydroxy-12-[(3-propylphenyl)methyl]-6,15-bis (trifluoromethyl)-19-oxa-3,4,12,18-tetrazatricyclo [12.3.1.12,5] nonadeca-1(18),2,4,14,1 6-pentaen-13-one]
CC(C)(C)c1ncc(CN2CCCCC[C@](O)(C(F)(F)F)C3=NN=C(O3)c3nc(c(C(F)(F)F)cc3N)C2=O)cn1 [Compound 171, (6R)-17-amino-12-[(2-tert-butylpyrimidin-5-yl)methyl]-6-hydroxy-6,15-bis (trifluoromethyl)-19-oxa-3,4,12,18-tetrazatricyclo [12.3.1.12,5] nonadeca-1(18),2,4,14,1 6-pentaen-13-one]
Nc1cc(C(F)(F)F)c2nc1-c1nnc(o1)[C@@](O)(C(F)(F)F)CCC(=O)CCCC2(F)F [Compound 43, (6R)-17-amino-13,13-difluoro-6-hydroxy-6,15-bis(trifluoromethyl)-19-oxa-3,4,18-triazatricyclo[12.3.1.12,5]nonadeca-1(18),2,4,14,16-pentaen-9-one]
Nc1cc(C(F)(F)F)c2nc1-c1nnc(o1)[C@@](O)(C(F)(F)F)CCCCCN(CC1C3(CC3)C13CC3)C2=O [Compound 245, (6R)-17-amino-12-(dispiro[2.0.24.13]heptan-7-ylmethyl)-6-hydroxy-6,15-bis(trifluoromethyl)-19-oxa-3,4,12,18-tetrazatricyclo [12.3.1.12,5] nonadeca-1(18),2,4,14,16-pentaen-13-one]
CC(C)(C)ON=C1CCCCCC[C@](O)(C(F)(F)F)C2=NN=C(O2)c2nc1c(C(F)(F)F)cc2N (single isomer, unassigned) [Compound 29]
Nc1cc(C(F)(F)F)c2nc1-c1nnc(o1)C(O)(C(F)(F)F)CCCCCN(C1CCC1)C2=O (single isomer, unassigned) [Compound 78, 17-Amino-12-cyclobutyl-6-hydroxy-6,15-bis (trifluoromethyl)-19-oxa-3,4,12,18-tetrazatricyclo [12.3.1.12,5] nonadeca-1(18),2,4,14,1 6-pentaen-13-one]
Nc1cc(C(F)(F)F)c2nc1-c1nnc(o1)[C@@](O)(C(F)(F)F)CCCCCN(Cc1cc(C3CC3)ccc1F)C2=O [Compound 259, (6R)-17-amino-12-[(5-cyclopropyl-2-fluoro-phenyl)methyl]-6-hydroxy-6,15-bis(trifluoromethyl)-19-oxa-3,4,12,18-tetrazatricyclo [12.3.1.12,5] nonadeca-1(18),2,4,14,16-pentaen-13-one]
CC(C)(C)c1ccc(CN2CCCCC[C@](O)(C(F)(F)F)C3=NN=C(O3)c3nc(c(C(F)(F)F)cc3N)C2=O)cc1 [Compound 116, (6R)-17-Amino-12-[(4-tert-butylphenyl)methyl]-6-hydroxy-6,15-bis (trifluoromethyl)-19-oxa-3,4,12,18-tetrazatricyclo [12.3.1.12,5] nonadeca-1(18),2,4,14,1 6-pentaen-13-one]
Nc1cc(C(F)(F)F)c2nc1-c1nnc(o1)C(O)(C(F)(F)F)CCCCN(Cc1ccc(OC(F)(F)F)cc1)C2=O (single isomer, unassigned) [Compound 234, 16-amino-6-hydroxy-11-[[4-(trifluoromethoxy)phenyl]methyl]-6,14-bis(trifluoromethyl)-18-oxa-3,4,11,17-tetrazatricyclo [11.3.1.12,5] octadeca-1(17),2,4,13,15-pentaen-12-one]
CC12CC(N3CCCCC[C@](O)(C(F)(F)F)c4nnc(o4)-c4nc(c(C(F)(F)F)cc4N)C3=O)(C1)C2 [Compound 122, (6R)-17-Amino-6-hydroxy-12-(3-methyl-1-bicyclo[1.1.1]pentanyl)-6,15-bis (trifluoromethyl)-19-oxa-3,4,12,18-tetrazatricyclo [12.3.1.12,5] nonadeca-1(18),2,4,14,1 6-pentaen-13-one]
Nc1cc(C(F)(F)F)c2nc1-c1nnc(o1)[C@@](O)(C(F)(F)F)CCCCCN(Cc1cccc(C3CCC3)c1)C2=O [Compound 229, (6R)-17-amino-12-[(3-cyclobutylphenyl)methyl]-6-hydroxy-6,15-bis(trifluoromethyl)-19-oxa-3,4,12,18-tetrazatricyclo [12.3.1.12,5] nonadeca-1(18),2,4,14,16-pentaen-13-one]

EC50, > 1000 nM:
Cn1cc(CN2CCCCC[C@](O)(C(F)(F)F)C3=NN=C(O3)c3nc(c(C(F)(F)F)cc3N)C2=O)cn1 [Compound 118, (6R)-17-Amino-6-hydroxy-12-[(1-methylpyrazol-4-yl)methyl]-6,15-bis (trifluoromethyl)-19-oxa-3,4,12,18-tetrazatricyclo [12.3.1.12,5] nonadeca-1(18),2,4,14,1 6-pentaen-13-one]
Nc1cc(C(F)(F)F)c2nc1-c1nnc(o1)C(O)(C(F)(F)F)CCCCCCC2O (single isomer, unassigned) [Compound 9, 17-amino-6,15-bis(trifluoromethyl)-19-oxa-3,4,18-triazatricyclo[12.3.1.12,5]nonadeca-1(18),2,4,14,16-pentaene-6,13-diol]
